Laboratory results reported in patent publication US9072729B2, “Method for treating fibrosis and cancer with imidazolium and imidazolinium compounds” (Agency for Science, Technology and Research, priority 2008, dated 2015).

Legend:
HLE cells = test: Growth inhibition assay (MTT), HLE; assay type: cell-based, human
Experimental: The effect of IMSs (IBN-15, IBN-19, IBN-24, IBN-25 and IBN-32) on the proliferative properties of p53 mutant cell line HLE was examined. The cytotoxicity activity and proliferation inhibition of IMSs in tumor cells were measured by MTT. […] The control experiments with DMSO alone (0.05% v/v) had no effect on cell proliferation. […] (Table 4) Microscopic observation on the cell cultures visually confirmed the inhibition on cell proliferation by IMSs. (FIG. 35)

GST = test: Glutathione S-transferase (GST) assay in treated cells; assay type: cell-based, rat; settings: for enhancement of GST activity: 48 h
Experimental: FIG. 4. Effect of DBZIM and TDBZIM on GPx, CAT, SOD and GST. DBZIM affected (a) GPx activity and (c) CAT activity in a dosage-dependent manner. TDBZIM suppressed (b) GPx activity and (d) CAT activity. (e) DBZIM and (f) TDBZIM had little effect on SOD activity. (g) DBZIM induced GST activity. HSC T6 cells were treated with compounds of various concentrations for 48 h, and homogenized by sonication (60% frequency for 30 s) in PBS (pH 7.4, 1 mM of EDTA) for GPx, GST and CAT assays, or in 20 mM of HEPES buffer containing 1 mM of EGTA, 210 mM of mannitol and 70 mM of sucrose (pH 7.2) for SOD assay. Enzyme activity was normalized against total protein. DBZIM was dissolved in DMSO, and TDBZIM was dissolved in H2O. The data were presented as mean and SEM, N=6, *^aP<0.05, *^bP<0.01, *^cP<0.005, and *^dP<0.0005, when compared to the vehicle control.
The activity of phase II anti-oxidant enzyme, GST, was assayed using a kit from Cayman Chemical. Protein samples were harvested in PBS buffer containing 1 mM of EDTA, and the protein concentration was determined by BCA assay. Total GST (cytosolic and microsomal) activity was assayed by measuring the conjugation of 1-chloro-2,4-dinitobenzene (CDNB) with reduced GSH, and monitored by an increase in absorbance at 340 nm. GST activity was expressed as nmol/min/mg protein.

NF-κB P65 = test: Western blotting of nuclear NF-κB and AP-1 in HSC T6 cells; assay type: cell-based, rat; settings: DBZIM 100 μM, TDBZIM 50 μM, 48 h
Experimental: FIG. 11. Western blotting of NF-κB and AP-1 (c-Fos, JunD and Fra-1) protein expressions in HSC T6 cells treated with DBZIM (100 μM) and TDBZIM (50 μM) for 48 h. 15 μg of nuclear protein was resolved in 4-12% gradient PAGE-SDS gel. The target proteins were recognized by the respective antibodies, and visualized by the ECL method. The membrane was stripped and probed for the Tata binding protein TBP used as the loading control.
Protein extracts were prepared by lysing a cell pellet in 10 volumes of boiled 1% sodium dodecyl sulfate (SDS) (90-95° C.) for 10 min for GFAP, or using NE-PER nuclear and cytoplasmic extraction reagents from Pierce (IL, USA) for nuclear proteins, or RIPA (Pierce, Ill., USA) for SMAA, fibronectin, collagen αI(I), TGF-β1 and TGFβ RI. Protein content was quantified using a BCA kit (Pierce, Ill., USA). […] The membrane was then probed with primary antibodies against GFAP (Dako, Denmark), SMAA (Sigma, USA), procollagen αI(I), fibronectin, c-Jun, c-Fos, JunB, JunD, Fra-1, Fra-2 (Santa Cruz Biotechnology, CA, USA), NF-κB P65, TGF-β1 and TGFβ RI (Abeam, UK), and detected by horseradish peroxidase-conjugated secondary antibody (Santa Cruz Biotechnology, CA, USA). […] Protein bands were recorded on X-ray film by reacting with ECL chemiluminescence reagents (Amersham Biosciences, NJ, USA). […]

IL-6 = test: Real-time RT-PCR of IL-6 mRNA in HSC T6 cells; assay type: cell-based, rat; settings: for inhibition of IL-6 transcription: 48 h
Experimental: FIG. 10. DBZIM and TDBZIM suppressed IL-6 mRNA. HSC T6 cells were incubated with DBZIM (1, 10, 100 and 300 μM) and (b) TDBZIM (1, 10 and 100 μM) for 48 h for the dosage-dependent study, and (c) with DBZIM (100 μM) and TDBZIM (100 μM) for 8, 24 and 48 h for the time-dependent study. The expression level of IL-6 mRNA was quantified with real-time RT-PCR. The data were presented as mean and SEM, N=6, *^bP<0.01, *^cP<0.005, and *^dP<0.0005, when compared to the vehicle control.
Total RNA was isolated using NucleoSpin RNAII isolation kit (Nacherey & Nagel, Germany), and quantified by ND-100 spectrophotometer (Nanodrop Technologies, DE, USA). The details of real-time RT-PCR were reported elsewhere (Zhang et al. 2006). Briefly, it was a two-step real-time RT-PCR using Taqman chemistry. Total RNA was first reverse transcribed to cDNA, and real-time PCR was run and detected in ABI 7500 Fast Real-Time PCR System (Applied Biosystems, CA, USA). Primers and probes for rat GFAP, SMAA, collagen Ia1, fibronectin, TGF-β1, TGF-β receptor I (TGFβ RI) and IL-6 were ordered from Taqman's assay-on-demand database. Rat β-actin was used as normalization gene, and its expression level was constant (CT difference was <±0.5) throughout the experimental settings in this study. Relative quantification of target mRNA was calculated using comparative threshold cycle method (ΔΔCT) as described in User Bulletin #2 (ABI Prism 7700 Sequence Detection System). Relative quantification was given by 2^−ΔΔCT to express the up-regulation or down regulation of the target gene under the treatments compared to the control.

Cc1ccc(C[n+]2ccn(Cc3ccccc3)c2)cc1.[Cl-] [IBN-24, 1-benzyl-3-(4-methylbenzyl)-imidazolium chloride]
IC50 (HLE cells; Homo sapiens, 72 h): 90 µM
IC50 (HLE cells; Homo sapiens, 120 h): 30 µM

CC(=O)Oc1ccc(C[n+]2ccn(Cc3ccccc3)c2C)cc1.[Cl-] [IBN-19, 1-benzyl-3-(4-acetate-benzyl)-2-methyl-imidazolium chloride]
IC50 (HLE cells; 72 h): 90 µM
IC50 (HLE cells; 120 h): 28 µM

(−)-Epigallocatechin gallate [EGCG, reference compound]
effect on GST activity (references) (GST; EGCG, NAC): did not have much affect

1,3,5-tris(4-methyl-imidazolium)-linked cyclophane.3Br [TDBZIM]
nuclear NF-κB P65 (active form) protein (NF-κB P65): significantly attenuated
inhibition of IL-6 transcription (IL-6; 1 μM): 37%
inhibition of IL-6 transcription (IL-6; 10 μM): 55%
inhibition of IL-6 mRNA expression (IL-6; 100 μM, 24 h): 52%
inhibition of IL-6 transcription (IL-6; 100 μM): 80%

[Br-].c1ccc(Cn2cc[n+](Cc3ccccc3)c2)cc1 [DBZIM, 1,3-bisbenzylimidazolium bromide]
enhancement of GST activity (GST; 100 μM): 22%
enhancement of GST activity (GST; 300 μM): 32%
nuclear NF-κB P65 (active form) protein (NF-κB P65): significantly attenuated
inhibition of IL-6 transcription (IL-6; 1 μM): 37%
inhibition of IL-6 transcription (IL-6; 10 μM): 46%
inhibition of IL-6 transcription (IL-6; 100 μM): 53%
suppression of IL-6 mRNA (IL-6; 100 μM, shorter treatment than 48 h (8, 24 h)): did not show statistically significant suppression
inhibition of IL-6 transcription (IL-6; 300 μM): 59%
